The source of these data is patent US20190048391A1, “COMPOSITIONS AND METHODS FOR IDENTIFYING ENZYME MODULATORS OR INHIBITORS” (priority 2013, published 2019).

Peptide text beside a SMILES is read from it. * marks the point of attachment. Decanoyl = CCCCCCCCCC(=O)*; CH2Cl = ClC*

Holding throughout (assay type): cell-based
In test [1] the test system is cleavage of wildtype HIV-1 envelope boundary by Furin or similar enzymes. Nature of the test: multiplexed tdTomato-barcoded SupT1 flow cytometry assay, wildtype HIV-1 envelope boundary substrate. The settings on record: DCK treatment; wildtype HIV-1 envelope boundary population. From the text: (§1) As example, FIG. 15 schematically illustrates a fluorescent flow cytometry analysis of three SupT1 T cell lines, each carrying a different substrate within the context of the assay elements. The distinct cell lines were previously genetically barcoded with different levels of tdTomato fluorescent protein. In that manner, the assay cells, when analyzed for tdTomato in the PE channel (FIG. 15A, panel A) show three populations (negative, dim, and bright tdTomato). […] The HA positive/FLAG positive population reveal Population 2 (dim for tdTomato expressing the mutant HIV envelope boundary; env-mut (R511S)).
(§2) FIG. 16 schematically illustrates a fluorescent flow cytometry analysis in the PE channel for td Tomato expression and FITC channel for FLAG expression. As a reminder, in the assay the second tag (FLAG here) is lost if cleavage occurs while the scaffold protein travels to the cell surface. […] When stained for FLAG, only population 2 (mutant HIV-1 boundary) retains the tag, while wild type HIV-1 boundary and DenV pr-M, as expected, lost it.
(§3) In alternative embodiments, exemplary assays of the invention are used for drug discovery. As a proof of principle, the same experiment with the three bar-coded populations was repeated in the presence of DCK, an inhibitor of Furin and similar protein convertases that are active in the Golgi/TransGolgi network. […]
A general note: Flow cytometry measures light scatter and fluorescence of single cells or particles in a stream.

Test [2] relates to cleavage of DenV pr-M boundary. The test is described as follows: multiplexed tdTomato-barcoded SupT1 flow cytometry assay, DenV pr-M boundary substrate. The settings on record: DCK treatment; DenV pr-M population.
Excerpt: as §1, §2, §3

Test [3] deals with T1, Furin (Homo sapiens, UniProt P09958).
T1 construct: endogenous in cells; host or cells: SupT1 T-cell clones stably transduced with pBMN-gp160 min-wt
Nature of the test: fluorescence microscopy (HA-FITC, FLAG-CY3) of SupT1 clones stably expressing the wt gp120/gp41 boundary scaffold. The note with it: 50 mM DCK. The method, then:
For that purpose, clones expressing the wt gp120/41 boundary were analyzed by flow cytometry following incubation with increasing concentration of the Furin inhibitor DCK. FLAG surface expression is progressively recovered at 10 mM and 50 mM DCK, increasing form 0.9% to 39% and then 90% (FIG. 7). The same clones, treated with 50 mM DCK, were further analyzed by fluorescence microscopy prior and following incubation with 50 mM DCK. The mutant version was used as control.
FIG. 8 illustrates: Fluorescence microscopy images of SupT1 clones stably expressing the assay (as with FIGS. 5, 6 and 7, above). Clones expressing wild type (wt) or mutant version of the boundary were analyzed with HA-FITC and FLAG-CY3. Visible light, individual channels and merge are shown. I: Inhibitor, BF: Bright Field.

For test [4], the target named is T1, Furin. Nature of the test: flow cytometry of FLAG surface expression in SupT1 clones stably expressing the wt gp120/gp41 boundary scaffold. The note with it: SupT1 clones expressing wt gp120/41 boundary, FITC anti-FLAG, 0.9% without inhibitor. From the text:
In alternative embodiments, cell-based assays of the invention comprise use of a double-tagged engineered scaffold (of the invention) that allows discrimination between cleaved and non-cleaved events based on the cell surface expression of one or two tags, respectively. In alternative embodiments the scaffold protein travels to the cell surface and retains the FLAG tag only when processing of the gp120/gp41 boundary within the gp160 Env precursor is inhibited, e.g., by a putative drug. […]
Clonal populations should drastically increase robustness as 100% of the cells are expected to express the assay scaffold. […] Selected clones sorted into a 96-well plate, were amplified for a period of one month and analyzed by flow cytometry and fluorescence microscopy. […]
For that purpose, clones expressing the wt gp120/41 boundary were analyzed by flow cytometry following incubation with increasing concentration of the Furin inhibitor DCK. […] The same clones, treated with 50 mM DCK, were further analyzed by fluorescence microscopy prior and following incubation with 50 mM DCK. […]
Flow cytometry and sorting: Flow cytometry is performed on a BD FACSAria™ and/or FACSCanto (SDSU FACS core facility) with 488 nm and 633 nm lasers. Data is collected using FACSDiva 6.1.1™ software (BD Biosciences. San Jose, Calif.) and analyzed by FLOWJO™ (Tree Star, Inc., Ashland, Oreg.).

T1 sequence (P09958 108-794): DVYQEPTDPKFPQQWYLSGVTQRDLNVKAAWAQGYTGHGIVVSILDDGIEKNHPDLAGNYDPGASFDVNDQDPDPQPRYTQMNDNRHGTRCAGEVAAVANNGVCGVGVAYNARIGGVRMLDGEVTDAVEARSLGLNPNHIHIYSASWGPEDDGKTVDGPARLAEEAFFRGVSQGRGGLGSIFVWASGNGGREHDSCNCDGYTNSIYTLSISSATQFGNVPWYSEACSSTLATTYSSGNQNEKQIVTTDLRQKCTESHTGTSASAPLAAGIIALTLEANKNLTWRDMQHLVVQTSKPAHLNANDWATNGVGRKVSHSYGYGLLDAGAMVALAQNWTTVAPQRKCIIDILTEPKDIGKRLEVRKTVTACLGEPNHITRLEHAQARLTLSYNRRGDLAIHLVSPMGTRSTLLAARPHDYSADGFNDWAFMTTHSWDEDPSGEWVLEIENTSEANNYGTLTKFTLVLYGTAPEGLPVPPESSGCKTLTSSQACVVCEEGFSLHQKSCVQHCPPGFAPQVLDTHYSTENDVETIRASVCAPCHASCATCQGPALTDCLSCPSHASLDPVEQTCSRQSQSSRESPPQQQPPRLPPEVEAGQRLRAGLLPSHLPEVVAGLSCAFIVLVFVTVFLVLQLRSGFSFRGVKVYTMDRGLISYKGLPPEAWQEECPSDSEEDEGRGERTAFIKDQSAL

As to `CCCCCCCCCC(=O)N[C@@H](CCCN=C(N)N)C(=O)N[C@H](C(=O)N[C@@H](CCCCN)C(=O)N[C@@H](CCCN=C(N)N)C(=O)CCl)C(C)C` [DCK] (Decanoyl-RVKR-CH2Cl), the “second tag (FLAG) cell surface expression” value in test [1] was “reconstitutes the second tag (FLAG) cell surface expression”. For the same compound, the “inhibition of cleavage (FLAG reconstitution)” value in test [2] is given as “not inhibited by DCK”. Moreover, at Furin [3], the “red fluorescence (FLAG-CY3) of wt clones” value is “red fluorescence is restored”. Besides, the figures for the FLAG surface expression at Furin [4] (10 mM DCK) and on Furin [4] (50 mM DCK) were 39% and 90%, respectively.
